Earlier results as cited in US20220098283A1, “ACE2- and TMPRSS2-Targeted Compositions and Methods for Treating COVID-19” (priority 2020, published 2022).
Read-outs that look alike come from different tables or passages of the source.

Target: hACE2 (Homo sapiens, UniProt Q9BYF1)
Details: 100 μM angiotensin II, 37° C., 2 hours

hACE2, sequence (Q9BYF1 18-805): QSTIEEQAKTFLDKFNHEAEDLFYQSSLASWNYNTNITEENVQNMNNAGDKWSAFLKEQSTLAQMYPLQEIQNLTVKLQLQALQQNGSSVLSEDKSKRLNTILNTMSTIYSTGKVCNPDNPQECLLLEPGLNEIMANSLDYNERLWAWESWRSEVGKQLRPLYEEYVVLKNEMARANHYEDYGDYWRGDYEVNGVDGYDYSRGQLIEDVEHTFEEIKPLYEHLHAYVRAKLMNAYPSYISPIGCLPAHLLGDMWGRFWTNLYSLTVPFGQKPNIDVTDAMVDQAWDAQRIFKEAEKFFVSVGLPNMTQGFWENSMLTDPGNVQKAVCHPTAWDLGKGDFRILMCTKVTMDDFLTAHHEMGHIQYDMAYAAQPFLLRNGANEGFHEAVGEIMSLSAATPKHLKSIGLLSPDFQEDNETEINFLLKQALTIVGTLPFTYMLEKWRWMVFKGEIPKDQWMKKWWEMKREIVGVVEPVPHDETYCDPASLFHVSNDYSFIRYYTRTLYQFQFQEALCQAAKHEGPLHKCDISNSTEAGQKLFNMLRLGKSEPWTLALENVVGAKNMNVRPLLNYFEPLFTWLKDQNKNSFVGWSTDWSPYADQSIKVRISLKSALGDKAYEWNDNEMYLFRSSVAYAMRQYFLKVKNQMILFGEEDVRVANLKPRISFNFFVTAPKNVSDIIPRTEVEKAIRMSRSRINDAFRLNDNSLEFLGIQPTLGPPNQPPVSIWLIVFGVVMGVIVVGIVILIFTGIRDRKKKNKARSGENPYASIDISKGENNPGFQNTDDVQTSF

Row | SMILES | inhibition of hACE2 activity (angiotensin II cleavage) (inhibitor 10 mM) | inhibition of hACE2 activity (angiotensin II cleavage) (inhibitor 100 μM)
1 | O=C(O)CN(CCN(CC(=O)O)CC(=O)O)CC(=O)O [EDTA] | inhibits hACE2 activity | –
2 | O=C(O)CC(Cc1ccccc1)C(=O)O (centres unmarked) [benzyl succinate] | – | none of lisinopril, captopril, enalaprilat, and benzyl succinate (a carboxypeptidase A inhibitor) inhibits hACE2 activity
